Data as given in patent US7846917B2, “18-Methyl-19-norandrost-4-ene 17, 17-spiro ether (18-methyl-19-nor-20-spirox-4-en-3-one), and pharmaceutical products comprising the same” (Bayer Schering Pharma AG, priority 2006, dated 2010).

Assays:
progesterone receptor = target: T1, progesterone receptor (Oryctolagus cuniculus, UniProt P06186); test: progesterone receptor binding assay using cytosol from rabbit uterus homogenate; details: for PR [KF]: 3H-progesterone = 1; for PR [RBA]: 3H-progesterone = 100
T1 construct: cytosol from rabbit uterus homogenate; from tissue; host or cells: rabbit uterus (cytosol of homogenate)
T1 sequence (P06186 1-930): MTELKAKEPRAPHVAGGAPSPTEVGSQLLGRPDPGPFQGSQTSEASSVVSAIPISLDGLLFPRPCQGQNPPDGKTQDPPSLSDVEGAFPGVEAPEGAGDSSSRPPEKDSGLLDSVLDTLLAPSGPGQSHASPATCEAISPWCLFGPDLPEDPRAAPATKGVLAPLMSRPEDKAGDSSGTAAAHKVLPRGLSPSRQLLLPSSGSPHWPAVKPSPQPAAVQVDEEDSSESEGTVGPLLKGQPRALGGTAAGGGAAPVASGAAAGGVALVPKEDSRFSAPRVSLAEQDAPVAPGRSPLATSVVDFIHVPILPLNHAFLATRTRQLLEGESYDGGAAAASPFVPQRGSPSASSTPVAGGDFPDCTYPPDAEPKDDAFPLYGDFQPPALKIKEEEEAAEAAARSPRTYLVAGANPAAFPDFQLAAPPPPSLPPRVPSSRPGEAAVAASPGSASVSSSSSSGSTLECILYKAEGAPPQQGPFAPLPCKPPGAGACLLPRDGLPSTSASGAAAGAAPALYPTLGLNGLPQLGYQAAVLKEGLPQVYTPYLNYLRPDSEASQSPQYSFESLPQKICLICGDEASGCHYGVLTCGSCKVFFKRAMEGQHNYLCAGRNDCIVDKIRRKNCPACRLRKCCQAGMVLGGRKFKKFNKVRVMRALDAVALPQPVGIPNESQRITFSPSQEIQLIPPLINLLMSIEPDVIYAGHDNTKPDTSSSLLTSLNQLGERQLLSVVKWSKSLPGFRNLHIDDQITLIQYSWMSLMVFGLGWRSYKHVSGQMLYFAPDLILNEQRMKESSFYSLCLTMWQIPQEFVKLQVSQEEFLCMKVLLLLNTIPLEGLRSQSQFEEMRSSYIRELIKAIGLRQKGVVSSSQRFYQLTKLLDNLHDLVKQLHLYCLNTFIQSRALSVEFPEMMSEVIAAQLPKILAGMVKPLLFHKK
Excerpt: (§1) This object is achieved by the provision of the 18-methyl-15β,16β-methylene-19-nor-20-spirox-4-en-3-ones of the general formula I described herein.

[1] = target: T2, mineralocorticoid receptor (Rattus norvegicus, UniProt P22199); test: mineralocorticoid receptor binding, rat kidney homogenate; details: for MR [KF]: 3H-aldosterone = 1; for MR [RBA]: 3H-aldosterone = 100
T2 construct: mineralocorticoid receptor from rat kidney homogenate; from tissue; host or cells: rat kidney homogenate
T2 sequence (P22199 1-981): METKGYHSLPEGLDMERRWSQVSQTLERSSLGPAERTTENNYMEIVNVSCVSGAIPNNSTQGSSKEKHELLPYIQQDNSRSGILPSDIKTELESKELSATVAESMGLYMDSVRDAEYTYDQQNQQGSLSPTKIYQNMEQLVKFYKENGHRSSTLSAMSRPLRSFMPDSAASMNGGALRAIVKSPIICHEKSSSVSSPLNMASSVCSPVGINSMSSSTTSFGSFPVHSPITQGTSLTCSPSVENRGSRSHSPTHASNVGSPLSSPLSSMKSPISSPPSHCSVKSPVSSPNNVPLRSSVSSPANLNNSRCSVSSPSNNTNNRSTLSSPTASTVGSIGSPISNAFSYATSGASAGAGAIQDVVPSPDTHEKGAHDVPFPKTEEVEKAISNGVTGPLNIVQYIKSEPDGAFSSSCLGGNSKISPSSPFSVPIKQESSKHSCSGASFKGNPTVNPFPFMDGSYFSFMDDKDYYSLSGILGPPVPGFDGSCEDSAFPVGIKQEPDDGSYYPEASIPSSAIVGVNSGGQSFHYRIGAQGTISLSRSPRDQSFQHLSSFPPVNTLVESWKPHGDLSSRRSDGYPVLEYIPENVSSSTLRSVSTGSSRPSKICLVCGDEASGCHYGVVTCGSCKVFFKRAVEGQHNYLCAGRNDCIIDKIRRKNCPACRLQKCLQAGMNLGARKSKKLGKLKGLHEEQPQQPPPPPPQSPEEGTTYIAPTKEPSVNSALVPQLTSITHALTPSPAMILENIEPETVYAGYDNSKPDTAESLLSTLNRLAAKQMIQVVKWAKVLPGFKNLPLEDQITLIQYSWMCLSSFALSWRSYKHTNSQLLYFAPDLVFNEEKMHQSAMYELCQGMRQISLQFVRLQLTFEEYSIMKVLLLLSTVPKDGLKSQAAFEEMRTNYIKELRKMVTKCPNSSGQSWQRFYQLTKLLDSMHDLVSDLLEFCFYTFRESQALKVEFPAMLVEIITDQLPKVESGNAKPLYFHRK
Excerpt: as §1

PR [KF] (progesterone receptor)	PR [RBA] (progesterone receptor)	MR [KF] [1]	MR [RBA] [1]	Structure (SMILES)
3.245	31	7.6	13	CC[C@]12CC[C@H]3[C@@H](CCC4=C(C)C(=O)CC[C@@H]43)[C@@H]1[C@@H]1C[C@@H]1[C@@]21CCCO1 [Example 14, 4,18-Dimethyl-150,16β-methylene-19-nor-20-spirox-4-en-3-one]
2.355	42	0.7	143	CC[C@]12CC[C@H]3[C@H]([C@@H]1[C@@H]1C[C@@H]1[C@@]21CCCO1)[C@H](C1CC1)CC1=CC(=O)CC[C@@H]13 [Example 12, 7α-Cyclopropyl-18-methyl-15β,16β-methylene-19-nor-20-spirox-4-en-3-one]
3.45	29	7.8	13	CCC12CCC3C4CCC(=O)C(C)=C4C4CC4C3C1C1CC1C21CCCO1 (stereo not drawn) [Example 17, 4,18-Dimethyl-6β,7β,15β,16β-dimethylene-19-nor-20-spirox-4-en-3-one]
3.01	33	88	1	CC[C@]12CC[C@H]3[C@@H]([C@H]4C[C@H]4C4=C(Cl)C(=O)CC[C@@H]43)[C@@H]1[C@@H]1C[C@@H]1[C@@]21CCCO1 [Example 18, 4-Chloro-18-methyl-6β,7β,15β,16β-dimethylene-19-nor-20-spirox-4-en-3-one]

More lines, now with the values behind:

Structure (SMILES)	PR [KF] (progesterone receptor)	PR [RBA] (progesterone receptor)	MR [KF] [1]	MR [RBA] [1]
CCC1CC2=CC(=O)CCC2C2CCC3(CC)C(C4CC4C34CCCO4)C12 (stereo not drawn) [Example 9, 7β-Ethyl-18-methyl-15β,16β-methylene-19-nor-20-spirox-4-en-3-one]	4.295	23	42	2
CC[C@]12CCC3C4CCC(=O)C=C4C4CC4C3C1[C@@H]1C[C@@H]1[C@@]21CCCO1 (stereo partly drawn) [Example 2, 18-Methyl-6α,7α,15β,16β-dimethylene-19-nor-20-spirox-4-en-3-one]	2.34	43	0.4	250
CCC12CCC3C4CCC(=O)C=C4CC(C)C3C1C1CC1C21CCCO1 (stereo not drawn) [Example 7, 7β,18-Dimethyl-15β,16β-methylene-19-nor-20-spirox-4-en-3-one]	1.08	93	0.5	200
C[C@]12CCC(=O)C=C1[C@@H]1C[C@@H]1[C@H]1[C@@H]3[C@@H]4C[C@@H]4[C@@]4(CCC(=O)O4)[C@@]3(C)CC[C@@H]12 [DRSP, 6β,7β-15β,16β-dimethylene-3-oxo-17-pregn-4-ene-21,17β-carbolactone, reference compound]	2.5	40	0.3	333
CC[C@]12CC[C@H]3[C@H]([C@@H]1[C@@H]1C[C@@H]1[C@@]21CCCO1)[C@H](C)CC1=CC(=O)CC[C@@H]13 [Example 6, 7α,18-Dimethyl-15β,16β-methylene-19-nor-20-spirox-4-en-3-one]	1.13	88	0.6	167
